The record followed here is patent publication US4264600A (priority 1979, dated 1981).

The subject of series [1] is Ann Arbor or Maryland B strains of influenza virus. As to the kind of experiment: in vivo survival of mice infected with influenza virus. The following applies: for minimal effective dose: read-out: in vivo dose at which there was a statistically significant increase in survival. Further details: species or system White Swiss female mice, McAllister strain. The procedure: In vivo activity was determined as follows: White Swiss female mice (11-13 g.) McAllister strain were infected with aqueous dilutions of Ann Arbor or Maryland B strains of influenza virus in an air borne injection apparatus. Graded dose levels of the drug were injected intraperitoneally (IP) or administered orally by gavage 24 and 4 hours preinfection and 24 and 48 hours postinfection. Date of death was determined. The drug was administered in water containing 2% of a surfactant. In Table 1, column 7, a dosage level for each drug is given at which there was a statistically significant increase in survival and column 6 gives the route of administration.

The test system of series [2] is Maryland B influenza virus. As to the kind of experiment: in vitro plaque inhibition, Maryland B influenza virus. The class given is cell-based. The conditions noted are these: for IC50: unidentified influenza virus, in Chlorocebus sabaeus, 72 h, read-out: I50, amount of drug which inhibits 50% of the plaques.
The conditions of series [3]: rats, 100 mg/kg.
For series [4] the following is noted: dogs, 30-60 mg/kg.
In series [5] the test system is Ann Arbor influenza virus. Put plainly: in vitro plaque inhibition, Ann Arbor influenza virus. Format: cell-based. The following applies: for IC50: unidentified influenza virus, in Chlorocebus sabaeus, 72 h, read-out: I50, amount of drug which inhibits 50% of the plaques.
The conditions of series [6]: compared with 6,7-dichloro congener.
The subject of series [7] is Vaccinia. Format: cell-based, Vaccinia virus. The following applies: in vitro.
The subject of series [8] is Polio III. The class given is cell-based, Polio III virus. The following applies: in vitro.
The test system of series [9] is Echo 10. As to the kind of experiment: in vitro plaque suppression test, Echo 10. The class given is cell-based, Echo 10 virus. The conditions noted are these: Echo 10, in vitro.
Series [10] deals with Herpes simplex. Put plainly: in vitro plaque suppression test, Herpes simplex. The class given is cell-based, Herpes simplex virus.
Where [11] appears, read: route IP, OR, 24 and 4 hours preinfection and 24 and 48 hours postinfection.
[12] abbreviates: increased to 60 mg/day for 7 days.
Where [13] appears, read: nasogastric gavage, 30 mg/day for 14 days.
Setting [14] is: route IP, 24 and 4 hours preinfection and 24 and 48 hours postinfection.

Converted amounts (≈) assume the structure as drawn. Where two headings read alike, the source gives them in different places. Bounds are passed on as bounds.

Regarding `O=C(O)CCc1nc2cc(Cl)c(Cl)cc2[nH]c1=O` [B], the minimal effective dose in series [1] (ip) came to 50 mg/kg.

Regarding `COC(=O)c1nc2cc(Cl)c(Cl)cc2[nH]c1=O` [C], the IC50 in series [2] was less than 10 µg/mL. The minimal effective dose in [1] (ip) turned out to be 60 mg/kg.

As for `CCOC(=O)c1nc2cc(Cl)c(Cl)cc2[nH]c1=O` [D], the IC50 in series [2] is 38 µg/mL (≈ 132 µM). The minimal effective dose in series [1] (setting [11]) stood at 40 mg/kg. In addition, where the note is “30 then 60 mg/day”, the blood urea nitrogen result is “elevated”, the creatinine levels result is “elevated” and the kidney damage entry is “evidence of kidney damage”. Also, under setting [12], the AP result was “remain elevated” and the SGPT result was “returned to normal”. Moreover, under setting [13], the AP entry was “moderate increases”; the SGPT entry is “moderate increases”; the “liver damage (from AP and SGPT)” value is listed as “suggestive of liver damage”. For the same compound, in [3], the “degree of hepatotoxicity (both drugs)” value was “equal, though minor” and the “degree of nephrotoxicity (both drugs)” value is “equal, though minor”. Also, in [4], the “degree of hepatotoxicity (both drugs)” value is on record as “equal, though minor” and the “degree of nephrotoxicity (both drugs)” value is “equal, though minor”.

`O=C(O)c1nc2cc(Cl)c(Cl)cc2[nH]c1=O` [E]: the IC50 in [2] was less than 71 µg/mL; in series [5], less than 100 µg/mL. Besides, the minimal effective dose in [1] (ip) came to 50 mg/kg.

For `CCOC(=O)c1nc2cc(I)c(I)cc2[nH]c1=O` [F, Ethyl 6,7-Diiodo-3,4-dihydro-3-oxo-2-quinoxaline Carboxylate], the “Ann Arbor influenza virus in vitro activity (in words)” value in [5] (Ann Arbor influenza virus, in vitro) is “Active”. The minimal effective dose in [1] turned out to be 80 mg/kg.

In the case of `CCCCOC(=O)c1nc2cc(Cl)c(Cl)cc2[nH]c1=O` [G], in series [2], the IC50 amounted to 38 µg/mL (≈ 121 µM).

Turning to `O=C(OCCCl)c1nc2cc(Cl)c(Cl)cc2[nH]c1=O` [J], the IC50 came out at 58 µg/mL (≈ 180 µM) in series [2] and 76 µg/mL (≈ 236 µM) in [5].

On to `C=CCOC(=O)c1nc2cc(Cl)c(Cl)cc2[nH]c1=O` [K], for which the IC50 came out at 33 µg/mL (≈ 110 µM) in [2] and 75 µg/mL (≈ 251 µM) in [5].

In the case of `O=C(OCC1CCC1)c1nc2cc(Cl)c(Cl)cc2[nH]c1=O` [L, Cyclobutylmethyl 6,7-Dichloro-3,4-dichloro-3-oxo-2-quinoxaline Carboxylate], the IC50 in series [2] was determined as 15 µg/mL (≈ 45.8 µM); in series [5] it was 20 µg/mL (≈ 61.1 µM).

As to `CCOC(=O)c1nc2cc(Br)c(Br)cc2[nH]c1=O` [M], the minimal effective dose in series [1] (setting [11]) lay in the range of 40 to 80 mg/kg. Also, the “toxicity in monkeys relative to its 6,7-dichloro congener” value in series [6] was “much less toxic”. For the same compound, in [3], the “degree of hepatotoxicity (both drugs)” value is given as “equal, though minor” and the “degree of nephrotoxicity (both drugs)” value is listed as “equal, though minor”. For the same compound, in series [4], the “degree of hepatotoxicity (both drugs)” value is “equal, though minor” and the “degree of nephrotoxicity (both drugs)” value was “equal, though minor”.

For “Ethyl 6(7)-Chloro-7(6)-bromo-3,4-dihydro-3-oxo-2-quinoxalineCarboxylate”, the “in vivo dose at which there was a statistically significant increase in survival” value in series [1] (setting [14]) was determined as 80 mg/kg. The “Activity level (dose level at which activity was found)” value (“Activity level” below) in series [7] and in series [8] was 2000 µg/mg throughout.

With “Ethyl 6-Nitro-8-chloro-3,4-dihydro-3-oxo-2-quinoxaline carboxylate and Ethyl 7-Nitro-5-chloro-3,4-dihydro-3-oxo-2-quinoxaline Carboxylate [S]”, in series [1] (setting [14]), the “in vivo dose at which there was a statistically significant increase in survival” value is reported as 80 mg/kg. Besides, the “Activity level” value in series [7], in [9] and in series [10] was 2000 µg/mg each time.

Consider “Ethyl 6-methoxy-5-nitro-3,4-dihydro-3-oxo-2-quinoxaline Carboxylate and Ethyl 7-Methoxy-8-nitro-3,4-dihydro-3-oxo-2-quinoxaline Carboxylate”, for which the “in vivo dose at which there was a statistically significant increase in survival” value in series [1] (setting [14]) was 80 mg/kg. In addition, the “Activity level” value in series [9] and in [10] was 2000 µg/mg each time.

Regarding “ethyl 6(7)-nitro-3,4-dihydro-3-oxo-2-quinoxaline carboxylate”, the “I50, amount of drug which inhibits 50% of the plaques” value in series [2] (Maryland B influenza virus, in vitro, 72 hours at 37° C.) came out at 40 µg/mL. In addition, the “in vivo dose at which there was a statistically significant increase in survival” value in series [1] (setting [14]) turned out to be 80 mg/kg. The “Activity level” value in series [7] is 2000 µg/mg.
